Reference: publication PMC6112376, “Comprehensive Analyses and Prioritization of Tox21 10K Chemicals Affecting Mitochondrial Function by in-Depth Mechanistic Studies” (Environmental Health Perspectives, 2018)
Counter-ions that a name gives are not always drawn. Like-named read-outs stand apart in the source and are kept apart here.

Experiments:
[1] = system: Caenorhabditis elegans strain PE255; assay: In vivo C. elegans ATP status assay; conditions: for minimal effective concentration: Caenorhabditis elegans, read-out: LEC LUM: lowest effect concentration for luminescence, a measure of nematode ATP content
[2] = system: Caenorhabditis elegans (Bristol N2); assay: C. elegans larval development and growth assay; conditions: for minimal effective concentration: Caenorhabditis elegans, read-out: LEC EXT: lowest effect concentration for extinction, a measure of nematode size
HepG2 cells [3] = conditions: cited from earlier work; for IC50: read-out: MMP assays IC50 (µM) qHTS-HepG2
rat primary hepatocytes [4] = assay: MMP assay in rat primary hepatocytes; conditions: for IC50: Rattus norvegicus, Hepatocyte, read-out: MMP assays IC50 (µM) Rat Hepatocytes; for MMP assays efficacy (%) Rat Hepatocytes: mean ± SD of three experiments
HepG2 cells [5] = assay: cells; conditions: Homo sapiens; for IC50: HepG2, read-out: MMP assays IC50 (µM) HepG2; for Emax: HepG2, read-out: MMP assays efficacy (%) HepG2
[6] = system: isolated rat liver mitochondria; assay: Oxygen consumption, Clark-type oxygen electrode; type: biochemical; conditions: for I-ADP, % of control (O2 consumption rate): glutamate/malate driven state 3 respiration; for I-ADP, % of control (O2 consumption rate) / I-sub, % of control (O2 consumption rate) / II-ADP, % of control (O2 consumption rate) / II-sub, % of control (O2 consumption rate): isolated rat liver mitochondria; for I-sub, % of control (O2 consumption rate): glutamate/malate driven state 4 respiration; for II-ADP, % of control (O2 consumption rate): succinate-driven state 3 respiration; for II-sub, % of control (O2 consumption rate): succinate-driven state 4 respiration; for Potential Mechanism: mitochondrial respiration in isolated rat liver mitochondria, Clark type oxygen electrode, over tested concentrations
HepG2 cells [7] = system: HepG2 cells
rat primary hepatocytes [8] = system: rat primary hepatocytes

Row | SMILES | LUM: mean difference in luminescence (ATP content) relative to plate controls ([1]; 0.5 µM) | LUM: mean difference in luminescence (ATP content) relative to plate controls ([1]; 1 µM) | LUM: mean difference in luminescence (ATP content) relative to plate controls ([1]; 5 µM) | LUM: mean difference in luminescence (ATP content) relative to plate controls ([1]; 10 µM) | LUM: mean difference in luminescence (ATP content) relative to plate controls ([1]; 25 µM) | LUM: mean difference in luminescence (ATP content) relative to plate controls ([1]; 50 µM) | LUM: mean difference in luminescence (ATP content) relative to plate controls ([1]; 75 µM) | LUM: mean difference in luminescence (ATP content) relative to plate controls ([1]; 100 µM) | minimal effective concentration [1] | EXT: mean difference in nematode size relative to plate controls ([2]; 0.5 µM) | EXT: mean difference in nematode size relative to plate controls ([2]; 1 µM) | EXT: mean difference in nematode size relative to plate controls ([2]; 5 µM) | EXT: mean difference in nematode size relative to plate controls ([2]; 10 µM) | EXT: mean difference in nematode size relative to plate controls ([2]; 25 µM) | EXT: mean difference in nematode size relative to plate controls ([2]; 50 µM) | EXT: mean difference in nematode size relative to plate controls ([2]; 75 µM) | EXT: mean difference in nematode size relative to plate controls ([2]; 100 µM) | minimal effective concentration [2] | MMP assays efficacy (%) qHTS-HepG2 (HepG2 cells [3]) | IC50 (HepG2 cells [3]) | also measured
1 | O=C1CCC(N2C(=O)c3ccccc3C2=O)C(=O)N1 (centres unmarked) [Thalidomide] | 0.03143 | 0.01645 | 0.01511 | 0.04635 | 0.07311 | -0.2127 | 0.4289 | 0.7958 | 75 µM | 0.09319 | -0.00358 | 0.07925 | 0.0474 | 0.0694 | 0.4966 | 0.9805 | 0.9456 | 50 µM |  |  | 
2 | Cc1cc(Cc2cc(C)cc(C(C)(C)C)c2O)c(O)c(C(C)(C)C)c1 | -0.1638 | -0.2926 | -0.4173 | -0.05227 | 0.3804 | 0.9583 | 0.4391 | 0.9663 | 50 µM | 0.1192 | 0.1294 | 0.8511 | 1.077 | 1.41 | 2.096 | 2.103 | 2.175 | 5 µM | -96±2% | 1.35 ± 0.26 µM | IC50 (rat primary hepatocytes [4]): 3.71 ± 0.47 µM; MMP assays efficacy (%) Rat Hepatocytes (rat primary hepatocytes [4]): -125±63%; IC50 (HepG2 cells [5]): 2 µM; Emax (HepG2 cells [5]): 97%; I-ADP, % of control (O2 consumption rate) ([6]; 20 µM): 103 (50.8) % of control; I-sub, % of control (O2 consumption rate) ([6]; 20 µM): 116 (18.6) % of control; II-ADP, % of control (O2 consumption rate) ([6]; 20 µM): 101 (78.4) % of control; II-sub, % of control (O2 consumption rate) ([6]; 20 µM): 103 (31.4) % of control; I-ADP, % of control (O2 consumption rate) ([6]; 100 µM): 100 (28.6) % of control; I-sub, % of control (O2 consumption rate) ([6]; 100 µM): 244 (29.2) % of control; II-ADP, % of control (O2 consumption rate) ([6]; 100 µM): 91 (33.1) % of control; II-sub, % of control (O2 consumption rate) ([6]; 100 µM): 184 (27.2) % of control; Potential Mechanism [6]: Uncoupler
3 | CCc1cc(Cc2cc(CC)cc(C(C)(C)C)c2O)c(O)c(C(C)(C)C)c1 | -0.0103 | -0.09559 | -0.6519 | -0.6136 | -0.3378 | -0.154 | 0.1094 | 0.04601 |  | 0.1174 | 0.117 | 0.5074 | 0.7525 | 0.8303 | 1.425 | 1.246 | 1.387 | 5 µM | -111±18% | 1.22 ± 0.73 µM | IC50 (rat primary hepatocytes [4]): 5.01 ± 4.35 µM; MMP assays efficacy (%) Rat Hepatocytes (rat primary hepatocytes [4]): -78±36%; IC50 (HepG2 cells [5]): 2 µM; Emax (HepG2 cells [5]): 90%; I-ADP, % of control (O2 consumption rate) ([6]; 20 µM): 96 (47.4) % of control; I-sub, % of control (O2 consumption rate) ([6]; 20 µM): 105 (16.9) % of control; II-ADP, % of control (O2 consumption rate) ([6]; 20 µM): 100 (77.8) % of control; II-sub, % of control (O2 consumption rate) ([6]; 20 µM): 97 (29.7) % of control; I-ADP, % of control (O2 consumption rate) ([6]; 100 µM): 121 (34.8) % of control; I-sub, % of control (O2 consumption rate) ([6]; 100 µM): 175 (20.9) % of control; II-ADP, % of control (O2 consumption rate) ([6]; 100 µM): 98 (35.6) % of control; II-sub, % of control (O2 consumption rate) ([6]; 100 µM): 134 (19.8) % of control; Potential Mechanism [6]: Uncoupler
4 | CC(C)[C@@H]1NC(=O)[C@H](C)OC(=O)[C@@H](C(C)C)NC(=O)[C@@H](C(C)C)OC(=O)[C@H](C(C)C)NC(=O)[C@H](C)OC(=O)[C@@H](C(C)C)NC(=O)[C@@H](C(C)C)OC(=O)[C@H](C(C)C)NC(=O)[C@H](C)OC(=O)[C@@H](C(C)C)NC(=O)[C@@H](C(C)C)OC1=O [Valinomycin] | -0.05222 | -0.06335 | 0.1958 | 0.3328 | 1.023 | 0.6115 | 0.5181 | 0.5717 | 25 µM | 0.09961 | 0.01293 | -0.07954 | -0.01187 | 0.0497 | 0.3415 | 0.411 | 0.3807 | 50 µM |  |  | 
5 | CCc1ccc(CCOc2ccc(CC3SC(=O)NC3=O)cc2)nc1 (centres unmarked) [Pioglitazone hydrochloride] |  |  |  |  |  |  |  |  |  |  |  |  |  |  |  |  |  |  | inactive |  | MMP assays IC50 (µM) qHTS-HepG2 (HepG2 cells [3]): inactive; MMP assays IC50 (µM) HepG2 (HepG2 cells [7]): inactive; MMP assays efficacy (%) HepG2 (HepG2 cells [7]): inactive; IC50 (rat primary hepatocytes [4]): 8.9 ± 9.2 µM; MMP assays efficacy (%) Rat Hepatocytes (rat primary hepatocytes [8]): -69+30%
6 | CC(C)c1ccc(O)c(C(C)C)c1 [2,4-Diisopropylphenol] |  |  |  |  |  |  |  |  |  |  |  |  |  |  |  |  |  |  | -107±10% | 17.2 ± 1.99 µM | MMP assays efficacy (%) HepG2 (HepG2 cells [7]): -115%; IC50 (HepG2 cells [7]; read-out: MMP assays IC50 (µM) HepG2): 35.5 µM; MMP assays IC50 (µM) Rat Hepatocytes (rat primary hepatocytes [4]): inactive; MMP assays efficacy (%) Rat Hepatocytes (rat primary hepatocytes [8]): inactive
